Tests used:
[1] = Lipophilicity, logD of the compound at pH 7.4 by shake flask method; type: physicochemical; settings: buffer
[2] = AUC infinity in C57BL6 mouse at 2 mg/kg, iv; type: ADME, organism-based; set-up: time infinity, route intravenous, dose 2 mg/kg; settings: in vivo
[3] = Bioavailability in C57BL6 mouse at 5 mg/kg, sc; type: ADME, organism-based; settings: in vivo
[4] = AUC infinity in C57BL6 mouse at 10 mg/kg, po; type: ADME, organism-based; set-up: route oral, time infinity, dose 10 mg/kg; settings: in vivo
[5] = Tmax in C57BL6 mouse at 10 mg/kg, po; type: ADME, organism-based; settings: in vivo
[6] = Half life in C57BL6 mouse at 5 mg/kg, sc; type: ADME, organism-based; settings: in vivo
[7] = target: Atypical chemokine receptor 3 (Mus musculus, UniProt P56485); test: Binding affinity to mouse CXCR7
Sequence of Atypical chemokine receptor 3 (P56485 whole entry): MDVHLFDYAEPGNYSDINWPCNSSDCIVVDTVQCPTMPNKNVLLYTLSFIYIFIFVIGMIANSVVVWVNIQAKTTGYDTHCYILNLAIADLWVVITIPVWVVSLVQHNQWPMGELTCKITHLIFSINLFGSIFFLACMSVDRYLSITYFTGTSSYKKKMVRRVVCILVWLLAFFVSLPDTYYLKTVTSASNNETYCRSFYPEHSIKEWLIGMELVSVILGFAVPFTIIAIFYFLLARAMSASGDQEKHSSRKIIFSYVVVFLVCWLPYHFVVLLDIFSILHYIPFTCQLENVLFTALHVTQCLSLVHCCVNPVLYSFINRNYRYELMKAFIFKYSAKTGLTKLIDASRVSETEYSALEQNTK

[8] = Oral bioavailability in C57BL6 mouse at 10 mg/kg; type: ADME, organism-based; settings: in vivo
[9] = Protein binding in C57BL6 mouse plasma assessed as unbound fraction; type: ADME, cell-free
[10] = Cmax in C57BL6 mouse at 5 mg/kg, sc; type: ADME, organism-based; set-up: route subcutaneous, dose 5 mg/kg; settings: in vivo
[11] = AUC infinity in C57BL6 mouse at 2 mg/kg, sc; type: ADME, organism-based; set-up: time infinity, route subcutaneous, dose 2 mg/kg; settings: in vivo
[12] = Unbound cmax in C57BL6 mouse; type: ADME; settings: in vivo
[13] = Volume of distribution at steady state in C57BL6 mouse at 2 mg/kg, iv; type: ADME, organism-based; settings: in vivo, read-out: Vdss
[14] = Half life in C57BL6 mouse at 10 mg/kg, po; type: ADME, organism-based; settings: in vivo
[15] = Half life in C57BL6 mouse at 2 mg/kg, iv; type: ADME, organism-based; settings: in vivo
[16] = Cmax in C57BL6 mouse at 10 mg/kg, po; type: ADME, organism-based; set-up: route oral, dose 10 mg/kg; settings: in vivo
[17] = Tmax in C57BL6 mouse at 5 mg/kg, sc; type: ADME, organism-based; settings: in vivo

Compound: COc1ccc2cccnc2c1N1CCCN(Cc2csc(-c3ccccc3)n2)CC1
- logD [1]: 3.4

Compound: CCc1ccn2ccnc2c1N1CCCN(CC2CCN(C(=O)[C@H]3C[C@@H]4CC[C@H]3O4)CC2)CC1
- logD [1]: 0.7

Compound: CCN(C)C(=O)N1C[C@@H]2[C@H](C1)[C@H]2C(=O)N[C@H]1CCN(c2nccn3ccnc23)C1
- AUC(0-inf) [2]: 864 ng·h/mL
- bioavailability [3]: 71%
- AUC(0-inf) [4]: 199 ng·h/mL
- Tmax [5]: 4.8 min
- half-life [6]: 30 min
- Ki [7]: 155 nM
- bioavailability [8]: 5%
- fraction unbound [9]: 0.4
- Cmax [10]: 1550 ng/mL
- AUC(0-inf) [11]: 1530 ng·h/mL
- fCmax [12]: 1.56 µM
- Vd [13]: 0.3 L/kg
- half-life [14]: 78 min
- half-life [15]: 12 min
- Cmax [16]: 185 ng/mL
- Tmax [17]: 15 min

Reference: ChEMBL document CHEMBL4808233, “Discovery and evaluation of non-basic small molecule modulators of the atypical chemokine receptor CXCR7” (Bioorg Med Chem Lett, 2021)
